Paper PMC11684029, “Discovery of VU6024578/BI02982816: An mGlu1 Positive Allosteric Modulator with Efficacy in Preclinical Antipsychotic and Cognition Models” (Journal of Medicinal Chemistry, 2024)
Read-outs that look alike come from different tables or passages of the source.

Columns and labels:
[1] = system: C57BL/6JRj mice; test: N1 sensory gating, MK-801 induced deficit; assay type: in vivo; settings: mouse, 10 mg/kg s.c.
Source text: We have also employed here event-related potentials (ERPs) and auditory-evoked oscillations, which serve as critical translational biomarkers, to assess the impact of our investigational drug on sensory processing and cognitive functions, providing valuable data on its potential efficacy in treating disorders like schizophrenia. Detailed description of the methodology, setup specifications and recording procedure and analysis of the 40 Hz auditory steady-state response (ASSR) protocol can be found in Schuelert et al.[27] […] Reduced entrainment of gamma oscillation reflects abnormalities in basic sensory registration and processing but is also associated with impaired higher cognitive functions.[32] ASSR can also be reliably impaired preclinically by different NMDA receptor antagonists.[33],[34] […] Abnormalities associated with the filtering or “gating” of sensory information are among the most consistent findings in schizophrenia research.[35] […]
Mice were placed in a plexiglass cage in an attenuated sound box and allowed to adapt to their environment for 20 min before subcutaneous administration of VU6024578 0.8, 4, and 10 mg/kg or vehicle (20% HP-β-CD in water). […] An infrared sensor on the Neurologger recorded the infrared trigger signals and trigger signals were saved in an individual trigger channel. […]

[2] = target: dog mGlu1 (Canis lupus familiaris, UniProt A0A8I3NTE8); test: mGlu1 PAM assay, dog receptor; assay type: cell-based; settings: read-out: dog mGlu1 Glumax
Chain of dog mGlu1 (A0A8I3NTE8 30-1195): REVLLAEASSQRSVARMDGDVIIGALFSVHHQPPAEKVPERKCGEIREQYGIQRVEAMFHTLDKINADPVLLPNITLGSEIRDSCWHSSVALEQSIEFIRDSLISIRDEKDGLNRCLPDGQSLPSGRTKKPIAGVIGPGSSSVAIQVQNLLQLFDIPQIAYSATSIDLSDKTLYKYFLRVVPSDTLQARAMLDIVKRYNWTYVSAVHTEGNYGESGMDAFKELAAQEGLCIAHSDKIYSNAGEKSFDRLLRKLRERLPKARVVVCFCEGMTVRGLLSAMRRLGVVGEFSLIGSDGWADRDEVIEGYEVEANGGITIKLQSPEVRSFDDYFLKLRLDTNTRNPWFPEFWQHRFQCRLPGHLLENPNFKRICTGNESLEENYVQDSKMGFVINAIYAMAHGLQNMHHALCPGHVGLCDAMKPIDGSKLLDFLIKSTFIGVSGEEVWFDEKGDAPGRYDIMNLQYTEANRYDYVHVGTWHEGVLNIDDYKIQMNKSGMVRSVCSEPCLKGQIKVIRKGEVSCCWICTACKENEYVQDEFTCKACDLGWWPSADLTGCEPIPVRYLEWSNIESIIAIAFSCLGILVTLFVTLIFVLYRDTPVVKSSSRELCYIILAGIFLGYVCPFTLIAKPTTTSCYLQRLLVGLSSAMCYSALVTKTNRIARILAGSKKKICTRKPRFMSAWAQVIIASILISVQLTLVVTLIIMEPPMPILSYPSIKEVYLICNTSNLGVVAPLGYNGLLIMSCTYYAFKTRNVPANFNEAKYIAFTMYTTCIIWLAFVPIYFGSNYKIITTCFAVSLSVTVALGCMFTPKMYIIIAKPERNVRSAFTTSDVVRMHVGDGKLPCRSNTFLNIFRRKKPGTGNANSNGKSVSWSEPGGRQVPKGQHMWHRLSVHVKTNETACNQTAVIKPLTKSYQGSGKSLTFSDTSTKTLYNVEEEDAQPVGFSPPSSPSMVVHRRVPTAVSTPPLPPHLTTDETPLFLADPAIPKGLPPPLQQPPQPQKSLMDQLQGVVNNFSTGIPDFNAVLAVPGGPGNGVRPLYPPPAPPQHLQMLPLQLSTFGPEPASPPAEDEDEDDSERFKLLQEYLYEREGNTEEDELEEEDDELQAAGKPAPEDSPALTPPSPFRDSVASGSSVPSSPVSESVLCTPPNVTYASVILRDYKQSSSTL

[3] = rat IV/PO PK crossover study; assay type: in vivo
Source text: Thus, 19d was a stable chemical entity in vivo. […] Overall, the rat PK and CNS penetration was supportive of in vivo work and progression down the development flow-chart.

[4] = system: male beagles; test: adverse events in dog PK; assay type: in vivo; settings: 0.5 mg/kg IV
Protocol: Deeper profiling began with IV dog PK (0.5 mg/kg, n = 3 male beagles). […] Was this a mechanism-based toxicity in dog? Could there be dog-specific pharmacology of mGlu1 activation? Were these AEs derived from the 19d chemotype? Could a mGlu1/mGlu5 heterodimer be responsible for the observed AEs? […] In an attempt to address the chemotype question, we evaluated PAM 4 (VU6004909),[8] an early generation rodent in vivo tool compound, for the first time in dog PK. […] of the study with 19d, PAM 4 produced no AEs in dog. […] Therefore, more molecular pharmacology and PK studies as well as additional chemically distinct mGlu1 PAM chemotypes are required to understand the AEs elicited by an mGlu1 PAM in dogs, an otherwise very promising target for the treatment of schizophrenia.

[5] = system: rat mGlu2–5,7,8; test: mGlu subtype selectivity; assay type: cell-based; settings: inactive
Protocol: (§1) Over the course of the mGlu1 PAM program, 19d became an assay standard and was assayed multiple times, affording refined potency values.[20]

[6] = system: human mGlu2–5,7,8; test: mGlu subtype selectivity; assay type: cell-based
Protocol: as §1

[7] = target: rat mGlu1 (Rattus norvegicus, UniProt P23385); test: progressive fold-shift assay, operational model of allosterism; assay type: cell-based
Chain of rat mGlu1 (P23385 19-1199): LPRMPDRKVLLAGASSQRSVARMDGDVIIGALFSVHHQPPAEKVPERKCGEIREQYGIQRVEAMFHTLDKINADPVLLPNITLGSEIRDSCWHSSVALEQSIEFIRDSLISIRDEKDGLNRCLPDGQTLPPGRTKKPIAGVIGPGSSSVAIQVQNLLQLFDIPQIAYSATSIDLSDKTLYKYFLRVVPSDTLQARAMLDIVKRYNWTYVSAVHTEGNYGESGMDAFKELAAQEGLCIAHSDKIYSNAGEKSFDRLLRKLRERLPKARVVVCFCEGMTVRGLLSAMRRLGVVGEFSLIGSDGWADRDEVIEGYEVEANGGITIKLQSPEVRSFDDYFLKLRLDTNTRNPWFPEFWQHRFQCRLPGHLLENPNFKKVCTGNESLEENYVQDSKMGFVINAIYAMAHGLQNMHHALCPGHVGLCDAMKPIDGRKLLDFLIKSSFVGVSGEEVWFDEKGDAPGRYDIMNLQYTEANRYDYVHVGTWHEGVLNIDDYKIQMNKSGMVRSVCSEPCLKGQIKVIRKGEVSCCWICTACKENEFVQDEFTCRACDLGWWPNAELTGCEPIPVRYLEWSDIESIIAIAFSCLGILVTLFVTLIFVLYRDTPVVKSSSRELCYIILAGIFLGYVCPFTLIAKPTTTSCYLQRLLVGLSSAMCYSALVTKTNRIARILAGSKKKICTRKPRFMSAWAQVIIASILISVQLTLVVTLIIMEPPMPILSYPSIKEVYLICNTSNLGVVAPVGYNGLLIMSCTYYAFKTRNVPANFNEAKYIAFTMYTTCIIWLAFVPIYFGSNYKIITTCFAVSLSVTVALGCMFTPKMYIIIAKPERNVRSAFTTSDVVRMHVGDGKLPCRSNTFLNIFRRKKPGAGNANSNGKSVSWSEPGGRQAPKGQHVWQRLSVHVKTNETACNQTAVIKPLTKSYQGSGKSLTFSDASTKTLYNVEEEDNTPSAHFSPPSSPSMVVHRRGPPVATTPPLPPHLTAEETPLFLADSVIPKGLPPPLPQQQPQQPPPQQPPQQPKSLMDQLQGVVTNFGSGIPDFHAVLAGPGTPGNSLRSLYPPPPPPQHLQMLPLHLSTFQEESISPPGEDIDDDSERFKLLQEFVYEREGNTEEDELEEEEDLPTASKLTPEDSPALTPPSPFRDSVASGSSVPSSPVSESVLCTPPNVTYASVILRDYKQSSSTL
Source text: (§2) To further characterize this novel mGlu1 PAM, we performed progressive fold-shift assays at both human and rat mGlu1 (Figure 4).
(§3) Figure 4 Operational modeling of the effects of increasing concentrations of VU6024578 (19d) on rat (A) and human (B) mGlu1receptors. Increasing amounts of 19d were applied prior to increasing concentrations of glutamate at either rat or human mGlu1. Data were fit in GraphPad Prism as indicated in the Methods section; for panel A, log α was 0.95 and for panel B it was 1.26. Data represent one experiment performed in duplicate.

[8] = target: T1, human mGlu1 (Homo sapiens, UniProt Q13255); test: as above; assay type: cell-based
T1 construct: expressed in transfected cells; pcDNA5/TO)
T1 sequence (Q13255 19-1194): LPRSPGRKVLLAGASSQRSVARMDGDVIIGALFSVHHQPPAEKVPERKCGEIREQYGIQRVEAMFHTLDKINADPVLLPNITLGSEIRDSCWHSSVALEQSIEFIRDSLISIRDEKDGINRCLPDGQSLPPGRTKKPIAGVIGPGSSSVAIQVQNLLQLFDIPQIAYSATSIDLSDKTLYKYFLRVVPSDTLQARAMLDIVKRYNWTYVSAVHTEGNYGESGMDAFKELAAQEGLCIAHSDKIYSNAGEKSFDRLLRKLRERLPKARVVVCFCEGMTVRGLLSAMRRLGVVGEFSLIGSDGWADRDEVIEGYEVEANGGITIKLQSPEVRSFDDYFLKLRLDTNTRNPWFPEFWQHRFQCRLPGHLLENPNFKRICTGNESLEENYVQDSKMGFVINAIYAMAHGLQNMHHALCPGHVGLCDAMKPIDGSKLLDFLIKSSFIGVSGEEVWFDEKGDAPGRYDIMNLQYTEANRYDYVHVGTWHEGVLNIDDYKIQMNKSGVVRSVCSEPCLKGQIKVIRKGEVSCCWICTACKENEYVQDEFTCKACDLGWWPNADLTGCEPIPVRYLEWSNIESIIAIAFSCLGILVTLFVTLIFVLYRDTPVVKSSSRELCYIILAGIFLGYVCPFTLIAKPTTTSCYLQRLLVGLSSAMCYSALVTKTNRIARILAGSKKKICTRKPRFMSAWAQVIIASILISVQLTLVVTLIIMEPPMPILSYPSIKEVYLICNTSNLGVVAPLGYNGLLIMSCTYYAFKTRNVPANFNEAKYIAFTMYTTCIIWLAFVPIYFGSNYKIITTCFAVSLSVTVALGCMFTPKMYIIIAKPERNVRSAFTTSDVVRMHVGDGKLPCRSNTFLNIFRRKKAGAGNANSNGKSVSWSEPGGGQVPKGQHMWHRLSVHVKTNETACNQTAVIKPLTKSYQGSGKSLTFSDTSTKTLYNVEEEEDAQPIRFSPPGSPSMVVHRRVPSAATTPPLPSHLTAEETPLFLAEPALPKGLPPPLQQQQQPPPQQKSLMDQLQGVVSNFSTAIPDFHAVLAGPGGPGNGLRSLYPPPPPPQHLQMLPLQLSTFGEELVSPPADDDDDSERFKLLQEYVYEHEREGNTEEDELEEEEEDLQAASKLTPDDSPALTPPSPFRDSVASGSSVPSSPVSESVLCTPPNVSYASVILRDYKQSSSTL
Source text: as §2, §3

Cn1nc(-c2ccnn2C)cc1CNC(=O)c1cc(-c2ccco2)ccc1Cl [Compound 19d, 2-Chloro-N-((1,2′-dimethyl-1H,2’H-[3,3′-bipyrazol]-5-yl)methyl)-5-(furan-2-yl)benzamide]
N1 sensory gating deficit induced by MK-801 [1]: reversed
Emax [2]: 129%
Vss ([3]; 1 mg/kg IV): 1.78 L/kg
plasma clearance (CLp) ([3]; 1 mg/kg IV): 8.3 mL/min/kg
t1/2 ([3]; 1 mg/kg IV): 3.9 h
oral bioavailability (%F) ([3]; PO 10% tween 80): 100%
Cmax ([3]; PO arm): 4150 ng/mL
Tmax ([3]; PO arm): 2 h
AUC ([3]; plasma, PO arm): 24600 ng·h/mL
adverse events (AEs) in dog ([4]; 0.5 mg/kg): GI-salivation and rigidity
time of AEs postdose ([4]; at Cmax): 1 to 3 min
adverse events (AEs) in dog ([4]; listed as VU6024578/BI02982816, 0.5 mg/kg): unanticipated AEs
activity against rat mGlu2–5,7,8 [5]: > 30 µM
activity against human mGlu2–5,7,8 ([6]; inactive): > 30 µM
activity on mGlu2–5,7,8, in words ([6]; species not given): inactive
EC50 ([7]; in Figure 4A): 0.044 µM
log α ([7]; panel A (rat), one experiment in duplicate): 0.95
Kb ([7]; rat mGlu1, operational model of allosterism, read-out: estimated KB): 1.04 µM
Kb ([7]; rat mGlu1, printed in Figure 4A, read-out: KB): 1.04 µM
Kb ([8]; human mGlu1, operational model of allosterism, read-out: estimated KB): 0.219 µM
log α ([8]; panel B (human), one experiment in duplicate): 1.26
EC50 ([8]; printed in Figure 4B): 0.046 µM
